Data on 4 molecules can be found in publication PMC6542800 (Nature Communications, 2019).

What is called kcat is the maximal rate divided by the concentration of active sites.

The target of data set [1] is T1, NOCT (122-431), catalytic domain of human NOCT (Homo sapiens, UniProt Q9UK39).
T1 construct: catalytic domain, residues 122-431; E. coli BL21 (DE3)-CodonPlus RIPL, pGEX-6P, GST tag removed with Prescission protease
T1 sequence (Q9UK39 122-431): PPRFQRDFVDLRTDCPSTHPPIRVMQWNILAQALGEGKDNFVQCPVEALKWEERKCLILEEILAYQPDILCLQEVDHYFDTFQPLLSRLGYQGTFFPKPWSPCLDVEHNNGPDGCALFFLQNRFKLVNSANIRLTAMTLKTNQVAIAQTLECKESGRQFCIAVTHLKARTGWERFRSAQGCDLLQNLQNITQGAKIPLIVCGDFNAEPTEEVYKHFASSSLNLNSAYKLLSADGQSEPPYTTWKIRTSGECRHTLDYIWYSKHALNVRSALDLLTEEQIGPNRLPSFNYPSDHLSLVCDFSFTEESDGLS
The data set can be described thus: LC-MS/MS product detection. Type of data set: biochemical. As to conditions: 10 μM enzyme, 1 h at r.t.

Data set [2] has as its target T2, Curled (NOCT ortholog), full-length, Curled 1-419 (Drosophila melanogaster, UniProt A8JQX3).
T2 construct: gene cu; full length 1-419 of splicing form H; E. coli, pGEX-6P, GST tag removed with Prescission protease
T2 sequence (A8JQX3 224-642): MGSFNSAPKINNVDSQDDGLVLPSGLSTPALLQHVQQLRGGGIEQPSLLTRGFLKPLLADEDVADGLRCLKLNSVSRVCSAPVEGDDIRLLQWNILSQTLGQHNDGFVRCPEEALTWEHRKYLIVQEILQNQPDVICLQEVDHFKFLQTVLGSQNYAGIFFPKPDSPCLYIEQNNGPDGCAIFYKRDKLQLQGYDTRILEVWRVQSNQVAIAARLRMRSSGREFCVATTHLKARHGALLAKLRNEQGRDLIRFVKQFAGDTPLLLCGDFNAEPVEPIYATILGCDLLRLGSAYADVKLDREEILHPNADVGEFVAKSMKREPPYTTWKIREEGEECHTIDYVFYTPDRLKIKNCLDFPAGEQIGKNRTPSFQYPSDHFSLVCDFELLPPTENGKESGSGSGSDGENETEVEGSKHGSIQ
The data set can be described thus: ion-exchange chromatography, UV […] nm. Type of data set: biochemical. The note with it: 22 °C, 20 mM Tris-HCl pH 8.0, 70 mM NaCl, 2 mM MgCl2.

For data set [3], the target named is T3, full-length (FL) human NOCT (Homo sapiens, UniProt Q9UK39).
T3 construct: E. coli, pGEX-6P, GST tag removed with Prescission protease
T3 sequence (Q9UK39 1-431): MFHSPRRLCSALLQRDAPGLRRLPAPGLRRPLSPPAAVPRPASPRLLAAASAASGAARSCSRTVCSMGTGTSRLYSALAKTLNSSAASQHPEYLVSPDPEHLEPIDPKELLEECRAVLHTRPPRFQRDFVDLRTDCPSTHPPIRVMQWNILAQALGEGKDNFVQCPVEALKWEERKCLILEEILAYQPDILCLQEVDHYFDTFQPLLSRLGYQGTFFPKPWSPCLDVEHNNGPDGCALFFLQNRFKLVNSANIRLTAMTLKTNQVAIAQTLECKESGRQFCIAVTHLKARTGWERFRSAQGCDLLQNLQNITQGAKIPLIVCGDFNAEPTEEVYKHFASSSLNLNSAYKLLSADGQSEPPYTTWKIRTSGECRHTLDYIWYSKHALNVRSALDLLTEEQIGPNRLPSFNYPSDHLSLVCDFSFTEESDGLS
The data set can be described thus: ion-exchange chromatography, UV […] nm. Type of data set: biochemical. The note with it: 22 °C, 20 mM Tris-HCl pH 8.0, 70 mM NaCl, 2 mM MgCl2; 1 mM substrate, 0.5 μM enzyme.

Substrate in the data set “purified protein”: NC(=O)C1=CN([C@@H]2O[C@H](COP(=O)(O)OP(=O)(O)OC[C@H]3O[C@@H](n4cnc5c(N)ncnc54)[C@H](OP(=O)(O)O)[C@@H]3O)[C@@H](O)[C@H]2O)C=CC1
The data set can be described thus: purified protein. The note with it: 22 °C, 20 mM Tris-HCl pH 8.0, 70 mM NaCl.

Regarding `NC(=O)c1ccc[n+]([C@@H]2O[C@H](COP(=O)(O)OP(=O)(O)OC[C@H]3O[C@@H](n4cnc5c(N)ncnc54)[C@H](OP(=O)(O)O)[C@@H]3O)[C@@H](O)[C@H]2O)c1` [NADP^+], the LC-MS/MS product detection result in data set [1] is “converted NADPH into NADH and NADP^+ into NAD^+ (Fig. 1c)”. The “ion-exchange chromatography, UV 260 nm” value in data set [2] is “Curled cleaved both NADP^+ and NADPH, exhibiting a preference for NADPH”; in data set [3] it was “conversion of both NADP^+ and NADPH into NAD^+ and NADH, respectively by full-length (FL) NOCT”. With `NC(=O)C1=CN([C@@H]2O[C@H](COP(=O)(O)OP(=O)(O)OC[C@H]3O[C@@H](n4cnc5c(N)ncnc54)[C@H](OP(=O)(O)O)[C@@H]3O)[C@@H](O)[C@H]2O)C=CC1` [NADPH], the “ion-exchange chromatography, UV 260 nm” value in data set [2] (1 mM substrate, 500 nM enzyme) is given as “In contrast, Curled readily cleaved NADPH (Fig. 5c; Supplementary Fig. 5b)”.

B1: NOCT (122-431), catalytic domain of human NOCT (Homo sapiens) (protein)
chain: T1 sequence (Q9UK39 122-431)
For B1, the kcat in the data set “purified protein” (2 mM MgCl2, 4.8 μM enzyme, printed range may span catalytic domain and full-length protein) was found to be 3.6 s⁻¹.

B2: full-length (FL) human NOCT (Homo sapiens) (protein)
chain: T3 sequence (Q9UK39 1-431)
Take B2: the catalytic constant (kcat) in the data set “purified protein” (2 mM MgCl2, printed range may span catalytic domain and full-length protein) stood at 34 s⁻¹.
